7 compounds from patent US12533341B2, “Small molecule inhibitors of voltage-gated sodium channel 1.7 and methods of using same” (Duke University, priority 2019, dated 2026) can be followed below.

Entries after “also recorded” stand apart in the source; their conditions may differ.

For one experiment, the target named is human Nav1.7 (Homo sapiens, UniProt Q15858). The experiment is described as follows: Whole-cell patch-clamp of sodium currents in Nav1.7-expressing HEK293 cells. Type of experiment: cell-based. Particulars: 10 μM, screen of compounds 1-9 (FIG. 3). The procedure: HEK-hNav1.7 stable cell line was purchased from SB Drug Discovery (Glasgow, United Kingdom). Human embryonic kidney 293 (HEK293) cells were obtained from the ATCC and maintained at the Duke cell culture facility. Cells were cultured in high-glucose (4.5 g/L) DMEM containing 10% (v/v) FBS (Gibco) and streptomycin/penicillin. For Nav1.7-expressing HEK293 cells, an additional antibiotic, blasticidin, was included. hNav1.5 transfection was performed by Lipofectamine 2000 at 70% confluence using 2 μg cDNA. The transfected cells were cultured in the same growth medium for 48 h before biochemical or electrophysiological studies.
Chain of human Nav1.7 (Q15858 whole entry): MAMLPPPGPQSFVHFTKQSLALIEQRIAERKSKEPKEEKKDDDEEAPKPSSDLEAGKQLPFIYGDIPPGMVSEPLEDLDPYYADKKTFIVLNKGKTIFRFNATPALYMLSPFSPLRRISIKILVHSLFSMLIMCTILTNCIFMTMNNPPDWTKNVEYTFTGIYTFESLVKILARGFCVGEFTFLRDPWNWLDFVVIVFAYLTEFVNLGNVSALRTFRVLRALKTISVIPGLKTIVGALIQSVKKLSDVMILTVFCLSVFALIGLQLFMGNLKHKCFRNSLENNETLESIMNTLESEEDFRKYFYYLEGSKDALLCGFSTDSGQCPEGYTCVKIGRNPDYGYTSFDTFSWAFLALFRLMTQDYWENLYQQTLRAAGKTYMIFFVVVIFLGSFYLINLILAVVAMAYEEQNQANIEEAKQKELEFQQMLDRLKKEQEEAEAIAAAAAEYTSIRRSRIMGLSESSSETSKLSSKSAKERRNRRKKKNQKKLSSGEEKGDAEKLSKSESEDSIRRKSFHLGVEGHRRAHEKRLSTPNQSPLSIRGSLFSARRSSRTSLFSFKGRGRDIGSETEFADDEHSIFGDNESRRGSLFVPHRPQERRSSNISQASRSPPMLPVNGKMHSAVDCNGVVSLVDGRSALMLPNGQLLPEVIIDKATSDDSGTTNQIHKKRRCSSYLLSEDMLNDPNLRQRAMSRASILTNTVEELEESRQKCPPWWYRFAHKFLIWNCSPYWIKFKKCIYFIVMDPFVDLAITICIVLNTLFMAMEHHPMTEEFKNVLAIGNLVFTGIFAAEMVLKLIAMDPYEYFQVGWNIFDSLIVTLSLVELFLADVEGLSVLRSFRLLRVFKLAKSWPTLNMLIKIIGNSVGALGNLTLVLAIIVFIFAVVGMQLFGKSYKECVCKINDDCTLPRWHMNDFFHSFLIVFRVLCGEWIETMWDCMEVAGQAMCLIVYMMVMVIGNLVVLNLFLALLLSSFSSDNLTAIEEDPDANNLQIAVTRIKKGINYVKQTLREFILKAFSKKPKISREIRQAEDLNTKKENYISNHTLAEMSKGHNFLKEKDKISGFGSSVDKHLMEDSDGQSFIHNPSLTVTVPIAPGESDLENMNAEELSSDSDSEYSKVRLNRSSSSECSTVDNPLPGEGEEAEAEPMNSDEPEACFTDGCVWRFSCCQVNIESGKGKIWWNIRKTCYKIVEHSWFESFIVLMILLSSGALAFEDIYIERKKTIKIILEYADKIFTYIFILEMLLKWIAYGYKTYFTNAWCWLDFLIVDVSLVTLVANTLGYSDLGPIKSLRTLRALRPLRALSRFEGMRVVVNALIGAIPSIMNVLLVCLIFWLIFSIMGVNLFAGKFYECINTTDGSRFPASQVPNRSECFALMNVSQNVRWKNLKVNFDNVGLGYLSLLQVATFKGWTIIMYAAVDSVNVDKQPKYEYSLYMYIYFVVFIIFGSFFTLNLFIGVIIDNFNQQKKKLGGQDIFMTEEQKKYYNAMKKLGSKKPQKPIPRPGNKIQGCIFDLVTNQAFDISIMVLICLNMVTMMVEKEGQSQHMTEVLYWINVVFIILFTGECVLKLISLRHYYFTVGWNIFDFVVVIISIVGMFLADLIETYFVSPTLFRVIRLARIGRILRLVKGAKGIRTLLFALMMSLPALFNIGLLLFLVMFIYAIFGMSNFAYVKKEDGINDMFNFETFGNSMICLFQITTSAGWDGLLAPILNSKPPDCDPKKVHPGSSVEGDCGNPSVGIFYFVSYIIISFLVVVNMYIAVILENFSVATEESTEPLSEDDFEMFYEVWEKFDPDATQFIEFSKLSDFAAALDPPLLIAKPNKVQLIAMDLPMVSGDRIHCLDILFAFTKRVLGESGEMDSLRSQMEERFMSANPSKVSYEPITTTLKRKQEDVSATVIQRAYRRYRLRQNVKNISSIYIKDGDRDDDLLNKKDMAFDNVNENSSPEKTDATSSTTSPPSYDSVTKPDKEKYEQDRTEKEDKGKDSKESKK
Whole-cell patch-clamp recordings were conducted at room temperature. Patch pipettes pulled from borosilicate capillaries (World Precision Instruments, Inc., Sarasota, FL) were used to record transient Na currents with an Axopatch-200B amplifier with a Digidata 1440A (Axon Instruments, Sunnyvale CA). The resistance was set to 3-4 MΩ when filled with pipette solution. The pipette solution contained (in mmol/L): CsCl 130, NaCl 9, MgCl2 1, EGTA 10, HEPES 10, adjusted to pH 7.3 with CsOH. The external solution for recording transient Na^+ currents contained (in mmol/L): NaCl 131, TEACl 10, CsCl 10, CaCl2) 1, MgCl2 2, CdCl2 0.3, 4-aminopyridine 3, HEPES 10, glucose 10, adjusted to pH 7.4 with NaOH. The recording chamber (300 μL) was continuously superfused at 3-4 mL/min. Series resistance was compensated (>80%) and leak subtraction was performed. Data were low-pass-filtered at 2 kHz and sampled at 10 kHz. pClamp10 (Axon Instruments) software was used during experiments and analysis. In voltage-clamp experiments, transient Na+ currents were evoked by a test pulse to 0 mV from the holding potential (−70 mV).
The effects of the 9 selected compounds on Nav1.7 channel activities were tested using patch-clamp recordings on human Nav1.7 expressing HEK293 cells (FIG. 3, FIG. 4). In each cell, sodium currents were recorded for 13 min, and candidate inhibitors (10 μM) were incubated for 2 min after 2 min baseline recording (FIG. 3). Compound was applied at the beginning of the second minute for two minutes (denoted as a horizontal line above the X-axis). Sodium currents were recorded at equal intervals (every 20 seconds, 40 recordings per compound per cell). Data was analyzed with a two-way repeated measures ANOVA, followed by a post-hoc test of the last timepoint Bonferroni-corrected for 9 pairwise comparisons (each compound was compared with control). […] Sample size n=3 to 7 cells per group.
For FIG. 4C, sample size was n=5 to 7 cells per group. Compound was applied at the beginning of the second minute for two minutes (denoted as a horizontal line above the X-axis). Sodium currents were recorded every 20 seconds.
In general terms: Patch clamp records ionic current or voltage across a cell membrane.

The subject of experiment [1] is neuropathic pain (CCI, SNI). As to the kind of experiment: Neuropathic pain models (CCI, SNI). The class given is in vivo, mouse. To be noted: intrathecally at a dose of 30 mg/kg; CCI and SNI models. Here is the method: Neuropathic pain is produced by chronic constriction injury (CCI) of the sciatic nerve. Mice are anesthetized with isoflurane, and three ligatures are 7-0 prolene placed around the nerve proximal to the trifurcation (1 mm between ligatures). The ligatures are loosely tied until a short flick of the ipsilateral hind limb is observed (Chen, Ji, et al. 2015; J Clin. Invest. 125(8):3226-3240).
SNI model. Neuropathic pain is produced by spared nerve injury (SNI). SNI surgery is conducted with a 5.0 silk tight ligation of the tibial and common peroneal nerves followed by transection and removal of a 3-5 mm nerve portion.
Animals in the neuropathic pain models are dosed with N-substituted indoles according to the present disclosure [N-(methylsulfonyl)-3-(3-oxo-1-(3-phenoxyphenyl)-3-((2-(pyrrolidin-1-yl)ethyl)amino)propyl)-1H-indole-1-carboxamide (10); (Z)-N-(5-((3-(3-oxo-1-(3-phenoxyphenyl)-3-((2-(pyrrolidin-1-yl)ethyl)amino)propyl)-1H-indol-1-yl)sulfonyl)-1,3,4-thiadiazol-2-yl)acetimidic acid (11); and 3-(3-phenoxyphenyl)-N-(2-(pyrrolidin-1-yl)ethyl)-3-(1-(thiazol-2-ylsulfonyl)-1H-indol-3-yl)propanamide (12)]. The compounds are synthesized according to the route outlined in Scheme 1 and are administered intrathecally at a dose of 30 mg/kg.

The subject of a further experiment is acute and chronic itch. The experiment is described as follows: Itch models (acute, dry skin, allergic contact dermatitis). Type of experiment: in vivo, mouse. Particulars: intrathecally at a dose of 30 mg/kg, dry skin and ACD itch models. Here is the method:
Mice are habituated to the testing environment daily for at least two days before analysis. Mice are shaved at the back of the neck the day before injection. Mice are left in small plastic chambers (14×18×12 cm) on an elevated metal mesh floor and allowed 30 min for habituation before examination. To elicit acute itch, pruritic agent 48/80 or chloroquine are injected intradermally in the nape of the neck and the number of scratched are counted every 5 min for 30 min after the injection. A scratch is counted when a mouse lifts its hindpaw to scratch the shaved region and returns the paw to the floor or to the mouth for the licking (Liu, et al. 2012; J Cin. Invest. 122(6):2195-2207).
To induce chronic itch, the neck skin is painted with acetone and diethyl ether (1:1) followed by water twice a day for 4 days, and spontaneous itch is examined by counting the number of scratches for 60 minutes on day 5. (Liu, et al. 2012, supra).
Chronic itch is induced by applying the hapten 1-fluoro-2,4-dinitrobenzene (DNFB) onto the back skin. (Liu, Ji, et al. 2016; Pain. 157(4):806-817; Zhao, et al. 2013; J Clin. Invest. 123(11):4769-4780). DNFB is dissolved in a mixture of acetone:olive oil (4:1) for sensitization and challenge. One day before sensitization, the surface of the abdomen and the nape of the neck are shaved. Mice are sensitized with 0.5% DNFB solution (50 μL) by topical application to a ˜2 cm^2 area of abdomen skin. Five days later, mice are challenged with 0.2% DNFB solution (30 μL) by painting the shave neck area, then every other day for one week. Spontaneous scratching behaviors are videoed for 1 hour, at 24 hours after each challenge. The behavioral tests of itch are performed blindly.
Animals in the itch models are dosed with N-substituted indoles 10, 11, and 12, which are administered intrathecally at a dose of 30 mg/kg.

Experiment [2] has as its system paclitaxel-induced mechanical allodynia. The experiment is described as follows: Paclitaxel-induced neuropathic pain model (von Frey). To be noted: intrathecal 10 nmol and 30 nmol, mice. The class given is in vivo, mouse. The procedure:
Intraperitoneal injection of paclitaxel (PTX, 2 mg/kg for multiple injections at day 0, 2, 4, and 6) was given to generate chemotherapy-associated neuropathic pain. Neuropathic pain behavior was tested 3 weeks after PTX injection using a von Frey test. Briefly, animals were habituated to the testing environment daily for at least 2 days before the baseline testing. Animals were confined in boxes placed on an elevated metal mesh floor and the hind paws were stimulated with a series of von Frey hairs with logarithmically increasing stiffness (0.02-2.56 g, Stoelting), presented perpendicularly to the central plantar surface. The 50% paw withdrawal threshold was determined by an up-down method.

Turning to `Cc1ccc(Cn2cc(C(CC(=O)NCc3ccncc3)c3cccc(Oc4ccc(Cl)cc4)c3)c3ccccc32)cc1` (stereo not shown) [Compound 5], at human Nav1.7, the “difference in relative current from the control group at the last measurement” value amounted to 0.29.
Still for that read-out and setting: in the case of `COc1ccc(Cn2cc(C(CC(=O)NCc3ccccc3)c3cccc(OCc4ccccc4)c3)c3ccccc32)cc1` (stereo not shown) [Compound 7] it was 0.35.
Still for that read-out and setting: then `COc1ccc(Cn2cc(C(CC(=O)NCc3ccco3)c3cccc(Oc4ccccc4)c3)c3ccccc32)cc1` (stereo not shown) [Compound 8], with 0.36.
In the case of `CS(=O)(=O)NC(=O)n1cc(C(CC(=O)NCCN2CCCC2)c2cccc(Oc3ccccc3)c2)c2ccccc21` (stereo not shown) [Compound 10, N-(methylsulfonyl)-3-(3-oxo-1-(3-phenoxyphenyl)-3-((2-(pyrrolidin-1-yl)ethyl)amino)propyl)-1H-indole-1-carboxamide], the “reduction of pain in neuropathic pain models” value in experiment [1] was “Reduction of pain is observed”. Also, the “reduction of scratching in itch models” value in the experiment on acute and chronic itch is “Reduction of scratching is observed”.
The like results for `CC(=O)Nc1nnc(S(=O)(=O)n2cc(C(CC(=O)NCCN3CCCC3)c3cccc(Oc4ccccc4)c3)c3ccccc32)s1` (stereo not shown) [Compound 11, (Z)-N-(5-((3-(3-oxo-1-(3-phenoxyphenyl)-3-((2-(pyrrolidin-1-yl)ethyl)amino)propyl)-1H-indol-1-yl)sulfonyl)-1,3,4-thiadiazol-2-yl)acetimidic acid] were, in that order, “Reduction of pain is observed” and “Reduction of scratching is observed”.
The like results for `O=C(CC(c1cccc(Oc2ccccc2)c1)c1cn(S(=O)(=O)c2nccs2)c2ccccc12)NCCN1CCCC1` (stereo not shown) [Compound 12, 3-(3-phenoxyphenyl)-N-(2-(pyrrolidin-1-yl)ethyl)-3-(1-(thiazol-2-ylsulfonyl)-1H-indol-3-yl)propanamide] were, in that order, “Reduction of pain is observed” and “Reduction of scratching is observed”.
For the compound `Nc1[nH]ncc1-c1cc(Cl)ccc1Oc1cc(F)c(S(=O)(=O)Nc2cscn2)cc1Cl` [PF-05089771, reference compound], in experiment [2], the “anti-allodynic effect in the paclitaxel model” value is “failed to produce any anti-allodynic effect; also recorded: did not produce anti-allodynia effects”.
